Data published in patent US20050288238A1, “Benzocyclodecane derivatives with antitumor activity” (Pfizer Inc, priority 2004, published 2005).

Target: T1, Pig brain tubulin (Sus scrofa, UniProt P02550+P02554)
T1 construct: Pig brain tubulin was prepared by two cycles of assembly and disassembly; from tissue; host or cells: pig brain
Test: Microtubule assembly and disassembly assay
Type: biochemical
Conditions: 0.5 mg/ml tubulin, 1 mM GTP, turbidity at 340 nm, reassembly after CaCl2 (5 mM)
Procedure: Microtubule assembly and disassembly assay.
Pig brain tubulin was prepared by two cycles of assembly and disassembly and it was stored in liquid nitrogen in Microtubule Assembly Buffer (MAB: 0.1 M MES, 2.5 mM EGTA, 0.5 mM MgSO4, 0.1 mM EDTA, 0.1 mM DTT pH 6.4). Assembly was monitored by the method of Gaskin et al. (Gaskin F, Cantor C R, Shelanski M L, 1974,: Turbidimetric studies of the in vitro assembly and disassembly of porcine neurotubules. J. Mol. Biol. 89: 737-758). The cuvette (1 cm path) containing 0.5 mg/ml tubulin and 1 mM GTP was shifted to 37° C. and continuous turbidity measurements were made at 340 nm on a spectrophotometer equipped with an automatic recorder and a thermostatically regulated sample chamber. After 30 min CaCl2 (5 mM) was added and disassembly was monitored for 10 min as decreased turbidity. Scalar doses of test compounds were monitored at regular intervals of 15 min.
(ED90) was calculated on this curve.

T1 sequence (P02550 whole entry): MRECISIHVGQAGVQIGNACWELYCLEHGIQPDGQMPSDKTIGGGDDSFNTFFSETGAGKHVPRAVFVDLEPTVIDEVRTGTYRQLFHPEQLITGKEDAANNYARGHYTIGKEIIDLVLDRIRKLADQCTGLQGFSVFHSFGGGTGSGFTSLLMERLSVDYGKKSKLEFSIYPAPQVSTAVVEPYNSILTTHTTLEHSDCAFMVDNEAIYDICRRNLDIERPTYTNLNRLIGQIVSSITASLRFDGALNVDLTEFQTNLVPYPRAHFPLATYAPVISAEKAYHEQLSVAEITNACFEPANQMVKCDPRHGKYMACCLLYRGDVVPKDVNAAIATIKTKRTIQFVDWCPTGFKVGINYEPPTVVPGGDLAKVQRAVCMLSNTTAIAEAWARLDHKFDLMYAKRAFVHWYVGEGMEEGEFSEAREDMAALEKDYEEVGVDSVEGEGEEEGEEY
T1 sequence (P02554 whole entry): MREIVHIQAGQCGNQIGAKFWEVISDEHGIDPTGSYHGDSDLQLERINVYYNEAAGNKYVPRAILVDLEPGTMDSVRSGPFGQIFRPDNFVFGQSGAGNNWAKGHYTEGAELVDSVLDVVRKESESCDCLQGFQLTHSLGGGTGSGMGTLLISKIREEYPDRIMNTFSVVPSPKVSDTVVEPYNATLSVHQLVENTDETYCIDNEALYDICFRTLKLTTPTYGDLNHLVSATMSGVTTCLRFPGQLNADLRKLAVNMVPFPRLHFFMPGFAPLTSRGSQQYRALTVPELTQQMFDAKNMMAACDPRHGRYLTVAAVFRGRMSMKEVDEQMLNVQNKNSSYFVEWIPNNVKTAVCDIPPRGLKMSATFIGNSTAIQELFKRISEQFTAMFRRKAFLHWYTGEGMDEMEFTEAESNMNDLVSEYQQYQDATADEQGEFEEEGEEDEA

ED90 (dose effecting tubulin assembly by 90% at 37° C.): 10 µM
SMILES: CC(=O)OC1C/C=C\CC(OC(=O)/C=C/c2cn(C)cn2)Cc2ccccc2C1 (stereo not shown) [I^v a, 11-(Acetyloxy)-5,6,7,10,11,12-hexahydrobenzo[a][10]annulen-6-yl (2E)-3-(1-methyl-1H-imidazol-4-yl)prop-2-enoate]
